This is an account of results in ChEMBL document CHEMBL1157539, “Thousands of chemical starting points for antimalarial lead identification” (Nature, 2010).

The assay deals with Plasmodium falciparum. As to the kind of experiment: GSK_TCMDC: Inhibition of Plasmodium falciparum 3D7 in whole erythrocytes, using parasite LDH activity as an index of growth. The assay is classed as functional, organism-based. The following applies: Plasmodium falciparum, 3D7.
As to `CCN(CC)CCc1ccc2c(=O)cc(CCc3cccc(F)c3F)n(CC(=O)N(C)Cc3ccc(-c4ccc(C(F)(F)F)cc4)cc3)c2c1`, the XC50 was determined as 862 nM.
As for `CCN(CC)CCN(Cc1ccc(-c2ccc(C(F)(F)F)cc2)cc1)C(=O)Cn1c(CCc2ccc(F)c(F)c2)nc(=O)c2ccccc21`, the XC50 was found to be 1580 nM.
As to `O=C(Cn1c(SCc2cccc(F)c2F)cc(=O)c2ccccc21)N(CCN1CCCCC1)Cc1ccc(-c2ccc(C(F)(F)F)cc2)cc1`, the XC50 amounted to 664 nM.
Under `CC(C)(C)N1CCC(N(Cc2ccc(-c3ccc(C(F)(F)F)cc3)cc2)C(=O)Cn2c(CCc3cccc(F)c3F)nc(=O)c3cccnc32)CC1` stands 757 nM; under `O=C(/C=C/c1ccc(Cl)c(Cl)c1)NCCCCCCN1CCCN(C(=O)Nc2ccc(Cl)c(Cl)c2)CC1`, 666 nM.
Under `Cc1[nH]c(C)c([N+](=O)[O-])c(=O)c1-c1ccc(Oc2ccc(OC(F)(F)F)cc2)cc1` stands 247 nM; under `O=S(=O)(c1csc2ccccc12)N(CCC(O)(C(F)(F)F)C(F)(F)F)Cc1cccc(O)c1`, 360 nM; under `O=C(Nc1cc(F)cc(F)c1)N1CCOC(CCN2CCC(c3ccccc3)CC2)(c2ccc(Cl)c(Cl)c2)C1` (stereo not drawn), 466 nM.
With `CCc1cn2c3c(cc(C(=O)N[C@@H](Cc4cccc(Cl)c4)[C@H](O)CNC4CCOCC4)cc13)N(C)S(=O)(=O)CC2`, the XC50 is 44.2 nM.
The molecule `CN1CCN(c2ccc(Cl)cc2NC(=O)C2COc3ccccc3O2)CC1` (stereo not drawn) returned an XC50 of 810 nM.
Regarding `CC(=O)N1N=C(c2cccs2)Sc2c1nc(-c1ccc(Cl)cc1)n2C(C)=O`, the XC50 was 736 nM.
Under `CC(C)(C)c1ccc(O)c(CNC2CCCCC2)c1` stands 264 nM.
`CC(=O)Nc1nc(C(=O)Nc2cccc(-c3cccc(-c4nc5cc(F)ccc5[nH]4)c3)c2)cs1` yielded an XC50 of 89.2 nM.
With `FC(F)(F)c1ccc2[nH]c(-c3cccc(-c4cccc(CNCC5CCCO5)c4)c3)nc2c1` (stereo not drawn), the XC50 was 422 nM.
Under `Cc1cc([N+](=O)[O-])ccc1NC(=O)Nc1cccc(C(F)(F)F)c1` stands 721 nM; under `COc1cc(NC(=O)Nc2cc(C)nc3ccccc23)cc(OC)c1`, 396 nM; under `O=C(N[C@H]1CCN(Cc2ccc(OCCN3CCNCC3)c(Cl)c2)C1)c1ccc(Cl)c(Cl)c1`, 1060 nM.
`O=C(NC(Nc1ccc([N+](=O)[O-])cc1)C(Cl)(Cl)Cl)c1cccc(Cl)c1` (stereo not drawn) came in with an XC50 of 863 nM.
Molecule `CC(C)(C)c1ccc(C(=O)Nc2ccc(NC(=O)c3ccc([N+](=O)[O-])o3)cc2)cc1` returned an XC50 of 844 nM.
As for `O=C(/C=C/c1cc(C(F)(F)F)ccc1F)NCCCCCN1CCC(c2c[nH]c3ccccc23)CC1`, the XC50 amounted to 1130 nM.
As for `CC(C)(CNCc1ccc(Cl)cc1)c1nc(-c2ccc(Cl)c(O)c2)c(-c2ccncc2)[nH]1`, the XC50 stood at 476 nM.
As for `COc1ccc2nccc(N3CCN(CCNCc4ccc5c(n4)NC(=O)CO5)CC3)c2n1`, the XC50 is 885 nM.
As to `Cc1nc2nc(N)nc(N)c2c(C)c1Cc1c(Cl)cccc1Cl`, the XC50 amounted to 48.9 nM.
For the molecule `CC(Oc1ccc(Cl)cc1)C(=O)NCCC1CCN(CCCCCNC(=O)/C=C/c2ccc(Cl)c(Cl)c2)CC1` (stereo not drawn), the XC50 is 1020 nM.
In turn, `CCN(CC)CCNC(=O)c1ccc(NC(=O)c2cc(-c3ccncc3)nc3ccccc23)cc1` showed an XC50 of 770 nM.
With `CC(=O)Nc1ccc(OCCN(CC(C)C)c2ccc(C(F)(F)F)c(C#N)c2)c(Cl)c1`, the XC50 was 308 nM.
Regarding `CCc1ccc(C2CCN(CCCCNC(=O)c3ccc(NC(=O)c4ccc(Cl)cc4)cc3)CC2)cc1`, the XC50 came to 646 nM.
`CCc1nc2ccc(C(=O)OC)nc2n1Cc1ccc2oc(-c3ccccc3N)c(Br)c2c1` came in with an XC50 of 822 nM.
Under `Cc1ccc(NC(=O)NC2CCN(CCCCCNC(=O)/C=C/c3ccc(Cl)c(Cl)c3)CC2)cc1C` stands 733 nM.
As for `COc1ccccc1N1CCN(CCCCNC(=O)c2ccc(NC(=O)c3ccc(OC(F)(F)F)cc3)cc2)CC1`, the XC50 stood at 663 nM.
In turn, `CC1(C)NC(N)=NC(=N)N1OCCSc1ccc(Cl)c(Cl)c1` came in with an XC50 of 3.2 nM.
Molecule `Cc1ccc(-c2nc(N3CCN(C(=O)c4ccco4)CC3)c3ccccc3n2)cc1` registered an XC50 of 970 nM.
As for `COC(=O)c1cccc(NC(=O)NC2CCN(c3ccnc(NCc4ccc(F)cc4)n3)CC2)c1`, the XC50 turned out to be 809 nM.
In the case of `CCc1cc(I)c2c(c1)C(NCCCNc1cc(=O)c3ccccc3[nH]1)CCN2` (stereo not drawn), the XC50 stood at 887 nM.
`Clc1ccc2nnc(-c3c(Cl)cccc3Cl)n2n1` displayed an XC50 of 905 nM.
The molecule `CCCCCCCNCc1c(O)ccc2c(CNCCCCCCC)c(O)ccc12` yielded an XC50 of 150 nM.
`O=C(NCc1cccc(F)c1)c1ccc(O)c(-c2cc(Cl)cc(Cl)c2)c1` returned an XC50 of 559 nM.
Consider `COc1ccc(C2CCN(CCCCNC(=O)c3ccc(NC(=O)c4ccc(Cl)cc4)cc3)C2)c(OC)c1` (stereo not drawn), for which the XC50 amounted to 1200 nM.
Molecule `COc1ccc(CNCCCCCNCc2ccc(Cl)c(Cl)c2)cc1Cl` had an XC50 of 751 nM.
The molecule `C[C@@H](NC(=O)c1nn(-c2ccc(Cl)cc2)c(=O)c2ccccc12)C(C)(C)C` registered an XC50 of 1120 nM.
In turn, `COc1cc(CS(C)(=O)=O)ccc1Nc1nccc(-c2c(-c3cccc(NC(=O)c4c(F)cccc4F)c3)nn3ccccc23)n1` displayed an XC50 of 966 nM.
`COc1ccc2c(OC)cccc2c1CNCCCCCCNCc1c(OC)ccc2c(OC)cccc12` displayed an XC50 of 686 nM.
The molecule `O=C(Nc1ccc(C(F)(F)F)cc1)NC1CCN(c2ccnc3cc(Cl)ccc23)C1` (stereo not drawn) gave an XC50 of 139 nM.
Under `CCOC(=O)c1ccc(NC(=O)NNC(=O)c2ccc(CCN3CCC(c4nc(COCC(F)(F)F)c(-c5ccc(F)cc5)o4)CC3)cc2)cc1` stands 574 nM.
The molecule `Cc1ccc(O)cc1Nc1ccnc2cc(-c3csc(CN(C)CCN(C)C)n3)ccc12` registered an XC50 of 789 nM.
As to `CCCCCC(C)C(C)c1cc(O)c2c(c1)OC1(C(C)C)CC(O)C(C)C2C1` (stereo not drawn), the XC50 stood at 985 nM.
Under `COC(=O)c1ccc2[nH]cc(C3CCN(CCC4CCN(C(=O)/C=C/c5ccc(Cl)c(Cl)c5)CC4)CC3)c2c1` stands 512 nM; under `COc1ccc2ccccc2c1CNCCCCCCNCc1c(OC)ccc2ccccc12`, 712 nM.
The molecule `COC(=O)C(c1ccc(NC(=O)[C@H](CC(C)C)NC(=O)OC(C)(C)C)cc1)c1ccc(NC(=O)[C@H](CC(C)C)NC(=O)OC(C)(C)C)cc1` returned an XC50 of 348 nM.
As for `Cc1ccc2[nH]c(/C=C/c3cccc4cc[nH]c34)nc2c1`, the XC50 stood at 1180 nM.
Take `O=C(Nc1cccc(CN2CCN(Cc3ccc(O)cc3)CC2)c1)c1ccc(Cl)c(Cl)c1`: the XC50 was 253 nM.
Under `COc1cccc(Nc2nnc(SCC(=O)NNC(=O)c3ccccn3)s2)c1` stands 380 nM; under `O=C(Nc1cccc(CN2CCN(C(=O)c3ccccc3)CC2)c1)c1ccco1`, 886 nM.
In turn, `CCCC(=O)Nc1ccc(OCCCCN(Cc2ccccc2C(F)(F)F)c2ccc(C(F)(F)F)c(C#N)c2)cc1` had an XC50 of 973 nM.
In the case of `CC(=O)Nc1nc(C(=O)Nc2ccc(-c3ccc(-c4nc5ccccc5[nH]4)cc3)cc2)cs1`, the XC50 amounted to 150 nM.
In turn, `CCCNC(=O)C1CCN(C(c2ccccc2)c2ccc(Cl)c(Cl)c2)CC1` (stereo not drawn) gave an XC50 of 708 nM.
Molecule `COc1ccc(NC(=O)c2cc(-c3ccc(NC(C)=O)cc3)cnc2N)cc1` returned an XC50 of 806 nM.
`CC(C)COc1ccc(C(O)C(CN2CCCCC2)c2ccccc2)cc1` (stereo not drawn) displayed an XC50 of 923 nM.
Turning to `Cc1cc(C)c(C)c(OCCCON2C(=N)N=C(N)NC2(C)C)c1C`, the XC50 worked out at 3.2 nM.
`CCn1cc2c3c(cc(C(=O)N[C@@H](Cc4ccccc4)[C@H](O)CNC4CCOCC4)cc31)N(C)S(=O)(=O)CC2` yielded an XC50 of 208 nM.
Consider `O=C(NC1CCN(Cc2ccccc2)CC1)c1cccc(Nc2nc(-c3ccccc3)cs2)c1`, for which the XC50 was 1030 nM.
For the molecule `O=C(/C=C/c1ccc(Cl)c(Cl)c1)NCCCCCN1CCC(NC(=O)Nc2ccccc2Cl)CC1`, the XC50 was 714 nM.
Take `O=C(/C=C/c1ccc(Cl)c(Cl)c1)NCCCCCCN1CCCN(C(=O)Nc2ccc(F)c(Cl)c2)CC1`: the XC50 was determined as 738 nM.
As for `Clc1ccc(OC2CCC(Cn3ccnc3)(c3ccc(Cl)cc3Cl)CC2)c(Cl)c1` (stereo not drawn), the XC50 amounted to 800 nM.
`CCCc1cc(NC2CCN(C)CC2)nc(Nc2cccc(OC)c2)n1` yielded an XC50 of 765 nM.
Under `Cc1ccc(CNC(=O)[C@H](CCCN)Nc2cc(C)nc(NCC3CCCCC3)n2)cc1` stands 1220 nM; under `CCN(Cc1ccccc1)C1CCN(Cc2cc(Br)ccc2O)CC1`, 823 nM.
Under `CC(C)(CNC(=O)C1CCN(CCOc2ccc(Cl)cc2)CC1)c1nc(-c2ccc(Cl)c(O)c2)c(-c2ccncc2)[nH]1` stands 709 nM; under `COc1ccc(Cc2nc(/N=C(\N)Nc3ccccc3)ccc2OC)cc1`, 852 nM.
Consider `COCCSc1ccc(CC(C)NCC(O)c2cccc(Cl)c2)cc1` (stereo not drawn), for which the XC50 amounted to 758 nM.
As to `CCCN/C=N/c1cc(-c2csc(NC(=N)N)n2)cc([N+](=O)[O-])c1`, the XC50 was found to be 1740 nM.
Regarding `Cc1ccc(-c2cc(C(=O)Nc3ccc(S(=O)(=O)N4CC(C)OC(C)C4)cc3)[nH]n2)c(O)c1` (stereo not drawn), the XC50 worked out at 608 nM.
As for `CN(C)C(=S)N/N=C1/C(=O)Nc2ccc(OC(F)(F)F)cc21`, the XC50 worked out at 1020 nM.
In turn, `O=C(NC1CCN(c2ccnc3ccccc23)C1)c1ccc(OC(F)(F)F)cc1` (stereo not drawn) came in with an XC50 of 1150 nM.
Molecule `COc1cccc(C(=O)N2CCN(Cc3cccc(NC(=O)c4cccs4)c3)CC2)c1` registered an XC50 of 483 nM.
Under `c1ccc(-c2cc(NCCCn3ccnc3)nc(-c3cccnc3)n2)cc1` stands 977 nM; under `NC(=O)CN1CC=C(c2c[nH]c3ccc(Br)cc23)CC1`, 1100 nM.
Under `O=C(/C=C/c1ccc(Cl)c(Cl)c1)NCCCCCN1CCC(NC(=O)Nc2ccccc2F)CC1` stands 839 nM; under `Cc1cccc2nc(-c3cccc(-c4ccc(NC(=O)c5cccc(C(N)=O)c5)cc4)c3)[nH]c12`, 410 nM; under `COc1ccc2nccc([C@@H](O)CN3CCC(NCc4ccc5c(n4)NC(=O)CS5)C(F)C3)c2c1` (stereo partly drawn), 912 nM.
Under `Cc1ccc(Cl)cc1NC(=O)c1c(-c2ccccc2Cl)noc1C` stands 192 nM; under `O=C(c1ccc(-c2ccc(-c3nc4cc(C(F)(F)F)ccc4[nH]3)s2)cc1)N1CCCCC1CN1CCC(O)C1` (stereo not drawn), 560 nM.
`O=C(/C=C/c1ccc(Cl)c(Cl)c1)NCCCCCN1CCC(c2n[nH]c(-c3ccccc3)c2Br)CC1` had an XC50 of 723 nM.
